The values that follow are results of earlier work, collected in patent US7326706B2, “Pyrazine modulators of cannabinoid receptors” (Bristol-Myers Squibb Company, priority 2003, dated 2008).

The conditions of data set [1]: chronic administration for two weeks.
For data set [2] the following is noted: 16 week trial period.

As to `Cc1c(C(=O)NN2CCCCC2)nn(-c2ccc(Cl)cc2Cl)c1-c1ccc(I)cc1` [AM-251], the body weight entry in data set [1] is reported as “substantial body weight reduction”. Consider `Cc1c(C(=O)NN2CCCCC2)nn(-c2ccc(Cl)cc2Cl)c1-c1ccc(Cl)cc1` [SR-141716], for which, in data set [2], the “body weight in human subjects” value is “dose-dependently reduced body weight”.
